# Results published in US20250353828A1, “SUBSTITUTED BIARYL ENDOCHIN-LIKE QUINOLONES WITH ENHANCED ANTIPARASITIC ACTIVITY” (Oregon Health & Science University, priority 2022, published 2025).
# Where two headings read alike, the source gives them in different places.
# Columns and labels:
# [1] = tested on: P. falciparum D6 strain (drug sensitive); experiment: In vitro antiplasmodial activity, SYBR Green I assay, D6 strain; assay type: cell-based, Plasmodium falciparum; settings: Plasmodium falciparum, read-out: P. falciparum IC50 values, nM D6
# Protocol: (§1) Rationale for Synthesis of a 3-Biaryl Version of ELQ-300. […] All of this information is stored in a database with information relating to chemical structure, physical chemical properties, cross resistance patterns, mammalian cell cytotoxicity, enzyme inhibitor profiles, and synthesis details. […] We employed the SyBr Green assay and the plates were incubated for 72 hours before harvesting^18, 19. […] Stock solutions were freshly prepared in DMSO.
# (§2) Plasmodium falciparum Culture. Laboratory strains of P. falciparum were cultured in human erythrocytes by standard methods. The parasites were grown in culture medium with fresh human erythrocytes maintained at 2% hematocrit at 37° C. in low-oxygen conditions (5% O2, 5% CO2, […] balance N2). […] Cultures were maintained at less than 10% parasitemia by transfer of infected cells to fresh erythrocytes and culture medium every 3 or 4 days.
# (§3) In vitro drug susceptibility assays. SYBR green I assay. In vitro antiplasmodial activity was assessed using a published SYBR Green I fluorescence-based method. The drugs were added to 96-well plates using 2-fold serial dilutions in complete medium. […] Asynchronous P. falciparum parasites were diluted with uninfected erythrocytes and added to the wells to give a final culture volume of 100 μl at 2% hematocrit and 0.2% parasitemia. […] The parasites were then lysed by adding 100 μl of SYBR green I lysis buffer containing 0.2 μl/ml SYBR green I dye (10,000×) in 20 mM Tris (pH 7.5), 5 mM EDTA, 0.008% (wt/vol) saponin, and 0.08% (vol/vol) Triton X-100. The plates were incubated at room temperature for an hour in the dark. […] If the IC50 value fell outside of the initial tested range then the range was adjusted up or down and the assay was repeated.
# [2] = tested on: P. falciparum Tm90-C2B (atovaquone-resistant clinical isolate); experiment: In vitro antiplasmodial activity, SYBR Green I assay, Tm90-C2B; assay type: cell-based; settings: Plasmodium falciparum, read-out: P. falciparum IC50 values, nM Tm90-C2B
# Protocol: as §1, §2, §3
# [3] = tested on: P. falciparum Dd2 strain (multidrug resistant); experiment: microbe, parasite or virus in culture; assay type: cell-based, Plasmodium falciparum; settings: Plasmodium falciparum, DD2, 72 h, read-out: P. falciparum IC50 values, nM Dd2
# Protocol: as §1, §2, §3
# [4] = tested on: P. falciparum D1 clone (ELQ-300 resistant); experiment: microbe, parasite or virus in culture; assay type: cell-based; settings: Plasmodium falciparum, 72 h, read-out: P. falciparum IC50 values, nM D1
# [5] = D6 strain, 72 h incubation, averages of quadruplicate with (95% confidence intervals)
# [6] = Tm90-C2B strain, 72 h incubation, averages of quadruplicate with (95% confidence intervals)
"IC50 [1, 5] [nM]","IC50 [2, 6] [nM]",SMILES,IC50 [3] [nM],IC50 [4] [nM],"IC50 ([1]; D6, 72 h) [nM]","IC50 ([2]; TM90, 72 h) [nM]"
3.9,5.9,"COc1cc2[nH]c(C)c(-c3ccc(-c4ccc(OC(F)F)cc4)cc3)c(=O)c2cc1Cl [ELQ-600, 6-chloro-3-(4′-(difluoromethoxy)-[1,1′-biphenyl]-4-yl)-7-methoxy-2-methylquinolin-4(1H)-one]",–,–,–,–
–,24.5,"Cc1[nH]c2cc(F)cc(F)c2c(=O)c1-c1ccc(-c2ccc(OC(F)(F)F)cc2)cc1 [ELQ-601, 5,7-difluoro-2-methyl-3-(4′-(trifluoromethoxy)-[1,1′-biphenyl]-4-yl)quinolin-4(1H)-one]",–,–,–,–
4.8,10.9,"COc1cc2[nH]c(C)c(-c3ccc(-c4ccc(C#N)cc4)cc3)c(=O)c2cc1Cl [ELQ-602, 4′-(6-chloro-7-methoxy-2-methyl-4-oxo-1,4-dihydroquinolin-3-yl)-[1,1′-biphenyl]-4-carbonitrile]",–,–,–,–
1,1.5,"COc1cc2[nH]c(C)c(-c3ccc(-c4ccc(C)cc4)cc3)c(=O)c2cc1Cl [ELQ-603, 6-chloro-7-methoxy-2-methyl-3-(4′-methyl-[1,1′-biphenyl]-4-yl)quinolin-4(1H)-one]",–,–,–,–
3.4,3,"COc1cc2[nH]c(C)c(-c3ccc(-c4ccc(Cl)cc4)cc3)c(=O)c2cc1Cl [ELQ-637, 6-chloro-3-(4′-chloro-[1,1′-biphenyl]-4-yl)-7-methoxy-2-methylquinolin-4(1H)-one]",–,–,–,–
5,6,"COc1ccc(-c2ccc(-c3c(C)[nH]c4cc(OC)c(Cl)cc4c3=O)cc2)cc1 [ELQ-645, 6-chloro-7-methoxy-3-(4′-methoxy-[1,1′-biphenyl]-4-yl)-2-methylquinolin-4(1H)-one]",–,–,–,–
1.1,1,"COc1cc2[nH]c(C)c(-c3ccc(-c4cccc(C(F)(F)F)c4)cc3)c(=O)c2cc1Cl [ELQ-646, 6-chloro-7-methoxy-2-methyl-3-(3′-(trifluoromethyl)-[1,1′-biphenyl]-4-yl)quinolin-4(1H)-one]",–,–,–,–
3.5,3.5,"COc1cc2[nH]c(C)c(-c3ccc(-c4ccc(C(F)(F)F)cc4)cc3)c(=O)c2cc1Cl [ELQ-647, 6-chloro-7-methoxy-2-methyl-3-(4′-(trifluoromethyl)-[1,1′-biphenyl]-4-yl)quinolin-4(1H)-one]",–,–,–,–
7.9,6,"Cc1[nH]c2ccccc2c(=O)c1-c1ccc(-c2ccc(OC(F)(F)F)cc2)cc1 [ELQ-649, 2-methyl-3-(4′-(trifluoromethoxy)-[1,1′-biphenyl]-4-yl)quinolin-4(1H)-one]",–,–,–,–
0.8,0.4,"COc1cc2[nH]c(C)c(-c3ccc(-c4ccc(OC(F)(F)F)cc4)cc3)c(=O)c2cc1F [ELQ-650, 6-fluoro-7-methoxy-2-methyl-3-(4′-(trifluoromethoxy)-[1,1′-biphenyl]-4-yl)quinolin-4(1H)-one]",–,–,–,–
1.1,0.49,"COc1cc2[nH]c(C)c(-c3ccc(-c4ccc(C(C)(C)C)cc4)cc3)c(=O)c2cc1Cl [ELQ-651, 3-(4′-(tert-butyl)-[1,1′-biphenyl]-4-yl)-6-chloro-7-methoxy-2-methylquinolin-4(1H)-one]",–,–,–,–
1.5,0.88,COc1cc2[nH]c(C)c(-c3ccc(-c4ccc(Oc5ccc(OC(F)(F)F)cc5)cc4)cc3)c(=O)c2cc1Cl [ELQ-653],–,–,–,–
15.6,7.9,Cc1[nH]c2c(c(=O)c1-c1ccc(-c3ccc(OC(F)(F)F)cc3)cc1)CCCC2 [ELQ-660],–,–,–,–

# The next lines start with the compound.
SMILES,"IC50 [1, 5] [nM]","IC50 [2, 6] [nM]",IC50 [3] [nM],IC50 [4] [nM],"IC50 ([1]; D6, 72 h) [nM]","IC50 ([2]; TM90, 72 h) [nM]"
"COc1cc2[nH]c(C)c(-c3ccc(-c4cccc(OC(F)(F)F)c4)cc3)c(=O)c2cc1Cl [ELQ-604, 6-chloro-7-methoxy-2-methyl-3-(3′-(trifluoromethoxy)-[1,1′-biphenyl]-4-yl)quinolin-4(1H)-one]",0.6,0.5,–,–,–,–
"COc1cc2[nH]c(C)c(-c3ccc(-c4ccc(C(F)F)cc4)cc3)c(=O)c2cc1Cl [ELQ-659, 6-chloro-3-(4′-(difluoromethyl)-[1,1′-biphenyl]-4-yl)-7-methoxy-2-methylquinolin-4(1H)-one]",1.8,0.57,–,–,–,–
"COc1ccc2c(=O)c(-c3ccc(-c4cccc(C(F)(F)F)c4)cc3)c(C)[nH]c2c1 [ELQ-730, 7-Methoxy-2-methyl-3-(3′-(trifluoromethyl)-[1,1′-biphenyl]-4-yl)quinolin-4(1H)-one]",5.02,4.05,5.33,3.82,–,–
"COc1ccc2c(=O)c(-c3ccc(-c4cc(C(F)(F)F)cc(C(F)(F)F)c4)cc3)c(C)[nH]c2c1 [ELQ-731, 3-(3′,5′-bis(trifluoromethyl)-[1,1′-biphenyl]-4-yl)-7-methoxy-2-methylquinolin-4(1H)-one]",3.93,2.05,4.73,5.56,–,–
"COc1ccc2c(=O)c(-c3ccc(-c4cccc(OC(F)(F)F)c4)cc3)c(C)[nH]c2c1 [ELQ-732, 7-methoxy-2-methyl-3-(3′-(trifluoromethoxy)-[1,1′-biphenyl]-4-yl)quinolin-4(1H)-one]",15.9,14.4,16.3,10.6,–,–
"COc1ccc2c(=O)c(-c3ccc(-c4cc(F)c(OC(F)(F)F)c(F)c4)cc3)c(C)[nH]c2c1 [ELQ-733, 3-(3′,5′-difluoro-4′-(trifluoromethoxy)-[1,1′-biphenyl]-4-yl)-7-methoxy-2-methylquinolin-4(1H)-one]",7.45,2.94,7.9,6.18,–,–
"COc1ccc2c(=O)c(-c3ccc(-c4cc(F)c(OC)c(F)c4)cc3)c(C)[nH]c2c1 [ELQ-734, 3-(3′,5′-difluoro-4′-methoxy-[1,1′-biphenyl]-4-yl)-7-methoxy-2-methylquinolin-4(1H)-one]",10.9,6.4,16.3,11.6,–,–
"COc1ccc2c(=O)c(-c3ccc(-c4ccc(F)cc4OC)cc3)c(C)[nH]c2c1 [ELQ-756, 3-(4′-Fluoro-2′-methoxy-[1,1′-biphenyl]-4-yl)-7-methoxy-2-methylquinolin-4(1H)-one]",3.27,3.22,4.46,2.06,–,–
COc1ccc2c(=O)c(-c3ccc(-c4ccc(C(F)(F)F)cc4OC)cc3)c(C)[nH]c2c1 [ELQ-757],–,–,4.85,1.91,3.08,3
